Results: patent US20240402081A1, “MOLECULAR DIFFUSION EVALUATION METHOD AND SYSTEM” (Nippon Telegraph and Telephone Corporation, priority 2021, published 2024)

Assay: SPR measurement of tracer molecule diffusion in a hydrogel layer (channel chip)
Format: physicochemical
Details: aqueous solutions of glucose and ethanol as tracer molecules; FIG. 5
Experimental: Hereinafter, a molecular diffusion evaluation method according to an embodiment of the present invention will be described with reference to FIG. 1. First, in step S101, a solution in which a target molecule (tracer molecule) is dissolved is introduced into a channel. The channel is formed on, for example, a measurement chip used by being attached to a surface plasmon resonance (SPR) measurement system. The channel includes a measurement area by surface plasmon resonance and a hydrogel layer provided in the middle of the measurement area. […] In a process where the solution in which the target molecule is dissolved passes through the portion where the hydrogel layer is not formed and the portion where the hydrogel layer is formed, the refractive index (SPR angle) at each portion is measured in time series, and the refractive index change (time change in SPR angle) at each portion is acquired. The refractive index change measured in the process of passing through the portion where the hydrogel layer is not formed is the first measurement result. In addition, the refractive index change measured in the process of passing through the portion where the hydrogel layer is formed is the second measurement result. Next, in step S103, the diffusion rate of molecules in the hydrogel is evaluated by comparing the first measurement result with the second measurement result (evaluation step). […]

- diffusion rate in the acrylamide gel, comparison of scaled SPR angle change curves: different
SMILES: CCO [ethanol]
